Measured values published in article PMC9146984, “A Novel Proline-Rich Cathelicidin from the Alpaca Vicugna pacos with Potency to Combat Antibiotic-Resistant Bacteria: Mechanism of Action and the Functional Role of the C-Terminal Region” (Membranes, 2022).
In brackets after ≈: the same amount, converted by molar mass. Where a SMILES comes first, the peptide text is derived from it.

Key:
[1] = tested on: A. baumannii XDR CI 2675; experiment: Antimicrobial assay (MIC); assay type: cell-based; details: Mueller-Hinton broth supplemented with 0.9% NaCl
Method: (§1) The reduction of resazurin to resorufin was measured.

[2] = tested on: B. licheniformis VKM B511; experiment: Antimicrobial assay (MIC); assay type: cell-based; details: Mueller-Hinton broth supplemented with 0.9% NaCl
Method: as §1

[3] = tested on: E. cloacae XDR CI 4172; experiment: Antimicrobial assay (MIC); assay type: cell-based; details: Mueller-Hinton broth supplemented with 0.9% NaCl
Method: as §1

[4] = tested on: K. pneumoniae ATCC 700603; experiment: Antimicrobial assay (MIC); assay type: cell-based; details: Mueller-Hinton broth supplemented with 0.9% NaCl
Method: as §1

[5] = tested on: Mycobacterium phlei Ac-1291; experiment: Antimicrobial assay (MIC); assay type: cell-based; details: Mueller-Hinton broth supplemented with 0.9% NaCl
Method: as §1

[6] = tested on: P. mirabilis XDR CI 3423; experiment: Antimicrobial assay (MIC); assay type: cell-based; details: Mueller-Hinton broth supplemented with 0.9% NaCl
Method: as §1

[7] = tested on: E. coli MDR 1057; details: MH broth with 0.9% NaCl, 14 passages with the same agent (VicBac[1–22]: after 10 passages)
Method: Resistance induction experiments were performed using the previously described method. Briefly, on day one, the overnight culture of wild-type bacteria was diluted with the 2× MH broth supplemented with 1.8% NaCl to reach a final cell concentration of 10^6 CFU/mL. 50 µL of the obtained bacterial suspension were added to aliquots of 50 µL of the peptide solutions serially diluted with the sterilized 0.1% BSA in 96-well flat-bottom polystyrene microplates. After incubation for 20 ± 2 h at 37 °C and 950 rpm, MICs were determined as described above. For each subsequent daily transfer, 2–4 μL of the inoculum taken from the first well containing a sub-inhibitory drug concentration were diluted with 2 mL of the fresh 2× MH broth supplemented with 1.8% NaCl. […] Bacteria that grew at the highest concentration of AMPs on the final day were passaged a further 3 times on drug-free agar plates before determining the final MIC value.

[8] = tested on: E. coli ML-35p cytoplasmic membrane; experiment: Cytoplasmic membrane permeabilization (ONPG hydrolysis); assay type: cell-based, Escherichia coli
Method: To examine the ability of the peptides to affect the barrier function of the cytoplasmic bacterial membrane, we slightly modified the previously described procedure with the use of the E. coli ML-35p strain constitutively expressing cytoplasmic β-galactosidase but lacking lactose permease. The state of the E. coli ML-35p inner membrane was assessed based on its permeability to chromogenic marker o-nitrophenyl-β-D-galactopyranoside (ONPG, AppliChem, Darmstadt, Germany), which is the β-galactosidase substrate. The cells were incubated in the trypticase soy broth (TSB) for 16 h at 37 °C, washed three times with phosphate-buffered saline (PBS, pH 7.4) to remove residual growth media, adjusted to the concentration of 2.5 × 10^8 CFU/mL, and stored on ice until used. The assay was performed in PBS as well. The final concentration of E. coli ML-35p cells was 2.5 × 10^7 CFU/mL. The concentration of ONPG was 2.5 mM. Peptide samples were placed in the wells of a 96-well plate with a non-binding surface (NBS, Corning #3641), and the optical density (OD) of the solution rose due to the appearance of o-nitrophenol was measured at 405 nm using a microplate reader AF2200 (Eppendorf, Hamburg, Germany). The final volume in each well was 200 µL. Assays were performed at 37 °C under stirring at 500 rpm. Control experiments were performed under the same conditions without adding a peptide. Two independent experiments were performed, and the curve pattern was similar.

[9] = tested on: PBMC; experiment: Cytokine response (multiplex xMAP immunoassay); assay type: cell-based, human; details: 2 µM peptide, 24 h
Method: (§2) Acute monocytic leukemia THP-1 line (ATCC TIB-202) was cultured in complete RPMI 1640 medium (Invitrogen, Waltham, MA, USA) containing 10% FBS, 1× antibiotic-antimycotic solution (Invitrogen, Waltham, MA, USA), and 0.05 mM β-mercaptoethanol, in the CO2-incubator (5% CO2, 37 °C). THP-1 cells were differentiated into proinflammatory macrophages (MΦ1) according to the previously reported protocol. Primary peripheral blood mononuclear cells (PBMC) collected from a healthy donor were purchased from American Type Culture Collection (ATCC PCS-800-011), thawed, and seeded into a 96-well plate one day prior to the experiment at a density of 2 × 10^5 cells/well. Two different cell subpopulations (monocytes and T-/B-/NK-lymphocytes) were isolated from PBMC based on their adherence ability. Macrophages MΦ1 were washed out and seeded into 96-well plates at a density of 10^5 cells/well one day prior to the experiment. The next day medium in each well was replaced by a fresh complete RPMI 1640 medium with or without 2 μM of cathelicidin (VicBac[1–22] or VicBac[1–39]). Cell cultures were kept in a CO2 incubator (5% CO2, 37 °C) for 24 h. Culture supernatants were collected 24 h later and stored at −70 °C degrees less than one week prior to the assessment of analytes. 27 analytes were measured at a protein level by multiplex xMAP technology using the MILLIPLEX MAP Human Cytokine/Chemokine Magnetic Bead Immunology Panel kit (HCYTOMAG-60K-27, Merck, Darmstadt, Germany): eotaxin-1/CCL11, TGFα, GM-CSF, IFNα2, IFNγ, IL-10, IL-12p40, IL-12p70, IL-13, IL-15, sCD40L, IL-17A, IL-1RA, IL-1α, IL-9, IL-1β, IL-2, IL-3, IL-4, IL-5, IL-6, IL-7, IL-8/CXCL8, IP-10/CXCL10, RANTES/CCL5, TNFα, TNFβ. Multiplex-based assay read-out was performed using the MAGPIX system (Merck) with the xPONENT 4.2 software (Merck, Darmstadt, Germany) in accordance with the manufacturer’s instruction with overnight incubation of the samples with primary antibodies. The final analysis was carried out with the MILLIPLEX Analyst v5.1 software (Merck). Measurements were performed twice for each sample. The release of the analytes in control and experimental samples were compared by unpaired two-sample t-test using GraphPad Prism v.8.0.1. The p values ≤ 0.05 were considered significant.

[10] = tested on: T-/B-/NK-lymphocytes; experiment: Cytokine response (multiplex xMAP immunoassay); assay type: cell-based, human; details: 2 µM peptide, 24 h
Method: as §2

[11] = tested on: primary monocytes; experiment: Cytokine response (multiplex xMAP immunoassay); assay type: cell-based, human; details: 2 µM peptide, 24 h
Method: as §2

[12] = tested on: proinflammatory macrophages (MΦ1) from THP-1; experiment: Cytokine response (multiplex xMAP immunoassay); assay type: cell-based, human; details: 2 µM peptide, 24 h
Method: as §2

[13] = tested on: S. aureus MDR CI 119; experiment: Antimicrobial assay (MIC); assay type: cell-based, Staphylococcus aureus; details: Mueller-Hinton broth supplemented with 0.9% NaCl
Method: as §1

## CC[C@H](C)[C@H](NC(=O)[C@H](CCCNC(=N)N)NC(=O)[C@@H](N)CCCNC(=N)N)C(=O)N[C@@H](CCCNC(=N)N)C(=O)N[C@@H](CCCNC(=N)N)C(=O)N1CCC[C@H]1C(=O)N[C@@H](CCCNC(=N)N)C(=O)N[C@@H](CC(C)C)C(=O)N1CCC[C@H]1C(=O)N[C@@H](CCCNC(=N)N)C(=O)N1CCC[C@H]1C(=O)N[C@@H](CCCNC(=N)N)C(=O)N[C@H](C(=O)N1CCC[C@H]1C(=O)N[C@@H](CCCNC(=N)N)C(=O)N1CCC[C@H]1C(=O)N[C@@H](CCCNC(=N)N)C(=O)N[C@H](C(=O)N1CCC[C@H]1C(=O)N1CCC[C@H]1C(=O)N[C@@H](CCCNC(=N)N)C(=O)N[C@H](C(=O)N1CCC[C@H]1C(=O)N[C@@H](CCCNC(=N)N)C(=O)N1CCC[C@H]1C(=O)N[C@H](C(=O)N[C@@H](CC(C)C)C(=O)N1CCC[C@H]1C(=O)N1CCC[C@H]1C(=O)N1CCC[C@H]1C(=O)N[C@@H](CCCNC(=N)N)C(=O)N[C@H](C(=O)N1CCC[C@H]1C(=O)N[C@@H](Cc1ccccc1)C(=O)N1CCC[C@H]1C(=O)N[C@@H](CCCNC(=N)N)C(=O)N[C@@H](Cc1ccccc1)C(=O)N1CCC[C@H]1C(=O)N[C@@H](CCCNC(=N)N)C(N)=O)C(C)C)C(C)C)[C@@H](C)CC)[C@@H](C)CC)C(C)C [VicBac[1-39]] (H-RRIRRPRLPRPRVPRPRIPPRIPRPVLPPPRVPFPRFPR-NH2; N-terminus assumed)
[1]
  MIC, A. baumannii XDR CI 2675: 8 µM (≈ 38.5 µg/mL)
[2]
  MIC, B. licheniformis VKM B511: 1 µM (≈ 4.82 µg/mL)
[3]
  MIC, E. cloacae XDR CI 4172: 4 µM (≈ 19.3 µg/mL)
[4]
  MIC, K. pneumoniae ATCC 700603: 2 µM (≈ 9.64 µg/mL)
[5]
  MIC, Mycobacterium phlei Ac-1291: 0.5 µM (≈ 2.41 µg/mL)
[6]
  MIC, P. mirabilis XDR CI 3423: 8 µM (≈ 38.5 µg/mL)
[7]
  increase in MIC value after serial passage selection: did not change
[8]; E. coli ML-35p, ONPG, near MIC 0.5 µM
  membrane damage effect at concentrations near the MIC value: negligible membrane damage effect
[8]; PBS, 37 °C, OD405, 2.5 mM ONPG, two independent experiments
  effect on E. coli ML-35p cytoplasmic membrane permeability for ONPG: quite moderate effect
[9]; control 95.52 pg/mL
  IL-1RA on PBMC: 18.79 pg/mL
[9]; control 286.63 pg/mL
  Production of RANTES/CCL5 on PBMC: 54.72 pg/mL
[10]
  CXCL10/IP-10 production in the T/B/NK culture: elevated
[11]; control 18.47 pg/mL, two biological replications
  Production of TNFα by monocytes: 11.41 pg/mL
[11]; control 163.77 pg/mL
  IL-1RA on primary monocytes: 37.82 pg/mL
[11]; control 284.28 pg/mL
  Production of RANTES/CCL5 on primary monocytes: 71.5 pg/mL
[12]; control 12.94 pg/mL, significance level quite low
  TNFα production by macrophages: 28.68 pg/mL
[12]; control 25.21 pg/mL
  IL-1RA on pro-inflammatory macrophages: 9.47 pg/mL
[13]
  MIC, S. aureus MDR CI 119: > 32 µM
